“Also recorded” adds a separate entry of the source.
What was measured:
[1] = Detection of lipid bisretinoids aggregation by filter passage; assay type: physicochemical
Source text: Detection of lipid bisretinoids aggregation.

[2] = test system: human MLKL; experiment: Western blot of Ser358 phospho-MLKL, phosphorylation and polymerization of MLKL; assay type: cell-based; details: absence of light
Experimental: (§1) Immunoblotting. Total cell lysates were extracted using RIPA lysis buffer (50 mM TrisHCl, Ph 8.0, 150 mM NaCl, 1% NP40, 0.5% Sodium Deoxycholate, 0.1% SDS, protease-phosphatase inhibitor) after the incubation of the specific sample group in a 48 well plate. Sonication or syringing (20 times) was done followed by centrifugation at 12,000×g for 10 mins and the supernatant was collected and stored in −80° C. Proten concentration from homogenates were assessed by Pierce Rapid Gold BCA protein assay kit (ThermoFisher Scientific, cat.no. A53225). Then 30 μg of protein was analyzed by standard SDS-PAGE gel. Samples were mixed 4:1 (v:v) with Nupage loading buffer with or without 8% 0-mercaptoethanol and heated for 10 min at 72° C. SDS-PAGE was done using 4-12% Nupage gel and buffer (Life, NP0335BOX). Next, SDS-PAGE gel was transferred to nitrocellulose membrane (Whatman, PROTAN BA83) overnight at 20V. The following day, 5% milk in TBS was used for 2 h blocking the membrane and then primary antibody was added in TBST (TBS, 0.1% Tween-20) for overnight at 4° C. Next day membranes were washed and incubated for 2 hours at room temperature with HRP conjugated secondary antibody (cat #G21234, Invitrogen) at 1:10,000 dilution. After 3 more washed membranes were probed with enhanced chemiluminescence (ECL) reagent and detected using an X-ray films for chemiluminescence image (GE healthcare, RPN2106). Scanning/imaging and quantitation of the image was done using silverfast 8 application software and Fiji Image J. Antibodies for Western blotting were list in FIG. 10.
For its phosphorylation, MLKL and its kinase need to be recruited into multiprotein complexes, known as necrosomes (FIG. 4O). Necrosomes are not well conserved among species and vary also with the nature of the stimuli that triggers their formation. […] Considering that phosphorylation of human MLKL at Ser358 (pMLKL), is a hallmark triggering event and marker of necroptosis, the Ser358-phosphorylation and polymerization status of MLKL in cells with LF was determined. […] A prerequisite for the assembly of these RIP kinases into necrosomes was their phosphorylation.

[3] = test system: cathepsin D; assay type: cell-based
Source text: (§2) Next, A2E buildups were imaged using a combination of DIC and fluorescence: A2E appeared as granules with well-defined edges, both within cells or after drying over a coverslip (FIGS. 14D and 14E). Next, the ability of the suspected A2E crystals to damage lysosomal membranes was investigated. A recently developed galectin-3 puncta assay for early detection of lysosomal membrane permeabilization (LMP) was used. Briefly, cytosolic galectin-3 rapidly binds to the glycocalyx in the luminal face of lysosomal membranes as they become leaky, which is easily detectable with anti-galectin high-affinity antibodies. L-Leucyl-L-Leucine methyl ester (LLO) a lysosomotropic peptide that causes LMP was used as positive control of puncta formation (FIG. 14E). […] LMP was confirmed by showing the […] of cathepsin D, as surrogate of lysosomal enzymes. […] Also, very remarkable was the observation that the same unique pattern of protection with arimoclomol and Nec-7 but not Nec-1 was observable for LLO (FIG. 14K), consistent with the idea that necroptosis by A2E is being caused by LMP.

[4] = test system: lysosomal membranes; assay type: cell-based
Source text: as §2

[5] = test system: IRE1α; experiment: qPCR of spliced XBP1 (XBP1s) as readout of IRE1α activity in ARPE-19; assay type: cell-based, Human
Source text: RNA isolation and quantitative PCR. Total RNA was extracted from cultured cells or mouse eye RPE layer using the RNeasy Mini kit (QIAGEN). The total RNA was digested with deoxyribonuclease I to prevent amplification of genomic DNA. The total RNA then was reversed transcribed using High-Capacity cDNA Reverse Transcription Kit (ThermoFisher Scientific, cat.no. 4368814) and analyzed gene expression using SYBR Green Master Mix (ThermoFisher Scientific, cat.no. 4472908) in an Applied Biosystems StepOne real time PCR machine. GAPDH was used as a reference gene. […] After genes were amplified by real time PCR, some of the PCR products were separated by 2.5% agarose gel.

[6] = test system: UPR (PERK and ATF6 branches); experiment: Western blot of ER-stress markers (p-eIF2a, ATF4, BiP, ATF6) without illumination; assay type: cell-based, Human
Experimental: as §1
The causal link between LF accumulation and ER-stress without light assistance was analyzed (FIG. 6A). […] The activation of the IRE1α branch was visualized by qPCR.

[7] = test system: ARPE-19 cells
Experimental: Cell Viability Assay. […] 1× AlamarBlue solution prepared in OptiMEM was used to replace the media supernatant and the plate's fluorescence was determined at 555 nm excitation/585 nm emission with a SpectraMax M (Molecular Devices, CA, USA), after 1 h. […] The exact timing of appearance of far-red (DRAQ7=plasma membrane leakage) and blue (NUC405=caspase 3 activation) fluorescence signals was critical to differentiate apoptosis and necrosis from secondary events, such as membrane damage and generalized proteolytic activation during the late phase of apoptosis and necrosis, respectively.
Real time monitoring of necrotic and apoptotic cell-death. Cell-death assay to study Lipofuscin's dark toxicity was performed. 90% confluent ARPE-19 or hfRPE were incubated overnight in serum free media supplemented with indicated LB concentration. Viability was assessed at 24 hrs by AlamarBlue®, or microscopy with NUC405/DRAQ7. Real time monitoring of necrotic (red) and apoptotic (blue) cell-death was performed by automated fluorescence microscopy. The exact timing of appearance of far-red (DRAQ7=plasma membrane leakage) and blue (NUC405=caspase 3 activation) fluorescence signals was critical to differentiate apoptosis and necrosis from secondary events, such as membrane damage and generalized proteolytic activation during the late phase of apoptosis and necrosis, respectively.
Chemical inhibitors. Chemical inhibitors used in this study are described in FIG. 12.

[8] = test system: ARPE-19 cells; experiment: Blue-light phototoxicity of A2E-loaded cells, AlamarBlue; assay type: cell-based, Human; details: A2E 5 μM O/N, blue light 10 min, viability after 24 hrs
Experimental: FIG. 18A: ARPE19 cells were pretreated for 1 hr with the […] of: eIF2a (Salubrinal (SAL), SAL003, or Guanabenz); eIF4 (Briciclib or eFT508); mTOR (Rapamycin, Torin-1); or the unspecific protein translation inhibitor (Cyclohexamide CHX) and then incubated with lethal doses of A2E (25 μM) for an additional 24 hrs in the presence of these drugs. Viability was assessed with AlamarBlue®. […] Viability was assessed with AlamarBlue®. […] ARPE-19 cells were incubated O/N with a non-toxic amount of A2E (5 μM) to allow its incorporation into lysosomes and after changing the media for PBS and irradiating for 10 min with blue light cells were maintained for an additional 24 hrs in Optimem before evaluating viability, using AlamarBlue®. FIG. 18D: Fluorescence microscopy of cells incubated with lethal amounts of A2E (25 μM) in Optimem for 24 hrs. Green fluorescence corresponds to A2E deposits. Nuclei are stained with the DNA dye, Hoechst, in viable cells (blue) and with Hoechst and DRAQ7 (a DNA dye that only enter cells with disrupted membranes) in dead cells (purple).
Blue light treatment. ARPE19 cells were grown at 70% confluence and were treated with or without 20 μM A2E in culture medium for 24 h. Then, HBSS replaced the cell culture medium before blue light treatment. ARPE19 cells with or without A2E intake, were illuminated by 460+20 nm wavelength light for 20 min.

[9] = test system: pMLKL; experiment: Fluorescence microscopy of pMLKL plasma membrane translocation in ARPE-19 monolayers; assay type: cell-based, Human; details: ARPE-19 with A2E or ATRD
Source text: Chronic accumulation of polymeric pMLKL could account for progressive damage in pigmented retinas as they amass LF.

[10] = test system: IRE1α; experiment: Western blot of light-independent phosphorylation of IRE1α induced by LF; assay type: cell-based
Experimental: as §1, with “The following day, 5% milk in TBS was used for 2 h blocking the membrane and then primary antibody was added in TBST (TBS, 0.1% Tween-20) for overnight at 4° C. Next day membranes were washed and incubated for 2 hours at room temperature with HRP conjugated secondary antibody (cat #G21234, Invitrogen) at 1:10,000 dilution.” left out

[11] = Oxidative damage by H2O2; assay type: cell-based

## CC(C=CC1=C(C)CCCC1(C)C)=CC=CC(C)=Cc1cc(C=CC=C(C)C=CC2=C(C)CCCC2(C)C)cc[n+]1CCO [A2E, N-retinylidene-N-retinylethanolamine]
[1]; 3 μm cut-off, same material
  passage through 3 μm filter in aqueous milieu: did cross membranes with 3 μm cut-off
[1]; 450 nm filter pores
  passage through 0.45 μm filter in aqueous milieu: could not move across 450 nm filter pores
[2]
  induction of phosphorylation and polymerization of MLKL: dose-dependent phosphorylation and polymerization of MLKL
[3]
  cathepsin-D activity: caused reduction in cathepsin-D activity
[4]
  lysosomal membrane permeabilization (galectin-3 puncta): clearly caused puncta staining and therefore LMP
[5]; in the dark, qPCR
  induction of XBP1s: dose and time-dependent inductions of XBP1s
[6]; 6 hrs treatment, 20 μM A2E
  cleavage of ATF6: significant cleavage
[6]; without light
  Ser51 phosphorylation of eIF2a: strongest Ser51 phosphorylation of eIF2a
[7]; light-independent
  cell death in ARPE19 cells exposed to the substance: Dose dependent cell death

## O=C(/C=C/c1ccccc1)NC(NC(=S)Nc1cccc2cccnc12)C(Cl)(Cl)Cl (stereo not shown) [Salubrinal]
[8]
  protection against phototoxic decomposition of lipid bisretinoids: does not protect against the phototoxic decomposition of lipid bisretinoids
[5]; ARPE-19, qPCR, listed as SAL
  effect on LF-induced XBP1 splicing (XBP1s, IRE1α activity): inhibits IRE1α signaling; also recorded: abrogated
[7]; ARPE19 pretreated 1 hr, then A2E 25 μM for 24 hrs in presence of drug, AlamarBlue
  protection against lethal doses of A2E, viability: protected against lipofuscin
[7]; with PERK inhibitor GSK2606414 or ATF4-shRNA, A2E 25 μM 24 hrs
  requirement of PERK / ATF4 for protection against lipofuscin: needs PERK but not ATF4 to exert protection against lipofuscin
[9]
  effect on LF-induced pMLKL plasma membrane localization: abrogated

## CC(=O)N[C@@H](CS)C(=O)O [NAC, N-acetyl cysteine]
[10]
  light-independent phosphorylation of IRE1α induced by LF in presence of antioxidant: proceeded unaffected
[11]
  prevention of oxidative damage by H2O2: effectively prevented oxidative damage by H2O2

— patent US20240082221A1, “COMPOSITIONS AND METHODS FOR THE IDENTIFICATION OF COMPOUNDS THAT PROTECT AGAINST LIPOFUSCIN CYTOTOXICITY” (priority 2021, published 2024)
